{"source": "patent US6716858B1", "about": "“Methods for inhibiting diabetic complications” (Kansas University Medical Center, priority 1995, dated 2004)", "tested_on": "AGE formation during uninterrupted glycation of human methemoglobin (Hb) by ribose", "assay": "Uninterrupted ribose glycation assay, Hb", "assay_type": "biochemical", "details": "0.05 M ribose, 3 weeks", "method": "ELISA detection of AGE products. The general method of Engvall (1981, Methods Enzymol. 70:419-439) was used to perform the ELISA. Typically, glycated protein samples were diluted to approximately 1.5 ug/ml in 0.1 M sodium carbonate buffer of pH 9.5 to 9.7. The protein was coated overnight at room temperature onto 96-well polystyrene plates by pippetting 200 ul of the protein solution in each well (0.3 ug/well). After coating, the protein was washed from the wells with a saline solution containing 0.05% Tween-20. The wells were then blocked with 200 ul of 1% casein in carbonate buffer for 2 h at 37° C. followed by washing. […] In order to minimize background readings, antibodies R479 used to detect glycated RNase were raised against glycated BSA, and antibodies R618 used to detect glycated BSA and glycated Hb were raised against glycated RNase. […] The p-nitrophenylphosphate substrate solution was then added (200 ul/well) to the plates, with the absorbance of the released p-nitrophenolate being monitored at 410 nm with a Dynatech MR 4000 microplate reader.\nUninterrupted ribose glycation assays Bovine serum albumin, ribonuclease A, and human hemoglobin were incubated with ribose at 37° C. in 0.4 M sodium phosphate buffer of pH 7.5 containing 0.02% sodium azide. […] Aliquots were taken and immediately frozen until analyzed by ELISA at the conclusion of the reaction. […]", "data": [{"smiles": "Cc1ncc(CO)c(CN)c1O", "note": "[pyridoxamine]", "values": [{"measurement": "inhibition of overall kinetics of AGE formation from ribose", "result": "showed the greatest inhibition at concentrations of 3 mM and above"}]}]}
